Laboratory results as given in US20250145606A1 (Arcus Biosciences, Inc., priority 2023, published 2025).
Read-outs that look alike come from different tables or passages of the source.

Assays:
c-Kit = c-Kit (Homo sapiens (Human), UniProt P10721); assay: Inhibition of c-Kit kinase activity (HTRF KinEASE-TK); assay type: biochemical
Procedure, shortened: (§1)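 Phosphorylation of biotinylated TK peptide read by HTRF (665/620 nm ratio) after 120 min at rt, following 1 h enzyme–compound preincubation. ATP (2× mix): 20 μM CSF1R, 16 μM c-Kit, 40 μM PDGFRβ, 1 μM PDGFRα; MgCl2 10 mM except c-Kit 5 mM. 22-point 1:2 titration; four-parameter IC50.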

PDGFRα = PDGFRα (Homo sapiens (Human), UniProt P16234); assay: Inhibition of PDGFRα kinase activity (HTRF KinEASE-TK); settings: biochemical, HTRF KinEASE-TK
PDGFRα, sequence (P16234 24-1089): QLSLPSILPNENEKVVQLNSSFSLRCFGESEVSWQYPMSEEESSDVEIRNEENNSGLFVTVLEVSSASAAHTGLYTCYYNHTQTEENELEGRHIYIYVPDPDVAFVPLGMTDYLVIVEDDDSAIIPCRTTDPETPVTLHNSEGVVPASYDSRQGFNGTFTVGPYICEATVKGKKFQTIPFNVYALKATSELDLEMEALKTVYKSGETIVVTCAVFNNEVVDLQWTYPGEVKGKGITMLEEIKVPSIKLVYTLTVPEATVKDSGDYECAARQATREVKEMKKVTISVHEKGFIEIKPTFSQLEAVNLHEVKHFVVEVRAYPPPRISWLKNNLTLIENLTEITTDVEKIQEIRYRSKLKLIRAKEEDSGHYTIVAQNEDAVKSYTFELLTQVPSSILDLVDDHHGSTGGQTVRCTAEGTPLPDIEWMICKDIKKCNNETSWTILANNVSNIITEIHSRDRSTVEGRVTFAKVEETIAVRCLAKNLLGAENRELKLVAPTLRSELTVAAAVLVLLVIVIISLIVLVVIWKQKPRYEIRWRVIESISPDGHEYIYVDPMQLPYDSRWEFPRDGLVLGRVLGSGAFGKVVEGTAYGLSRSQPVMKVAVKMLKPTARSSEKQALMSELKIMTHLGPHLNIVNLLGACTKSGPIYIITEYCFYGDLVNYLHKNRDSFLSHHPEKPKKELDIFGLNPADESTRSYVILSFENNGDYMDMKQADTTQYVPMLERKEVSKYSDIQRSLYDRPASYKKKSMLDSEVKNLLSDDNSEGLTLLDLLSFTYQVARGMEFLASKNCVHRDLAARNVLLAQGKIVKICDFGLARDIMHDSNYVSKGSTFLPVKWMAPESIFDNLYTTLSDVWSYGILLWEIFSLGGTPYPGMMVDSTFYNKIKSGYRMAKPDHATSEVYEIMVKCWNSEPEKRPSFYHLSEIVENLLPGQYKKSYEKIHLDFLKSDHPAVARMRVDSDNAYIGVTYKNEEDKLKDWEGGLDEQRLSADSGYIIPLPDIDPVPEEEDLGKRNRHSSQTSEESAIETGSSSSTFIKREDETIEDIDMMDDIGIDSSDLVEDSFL
Procedure, shortened: as §1

PDGFRβ = PDGFRβ (Homo sapiens (Human), UniProt P09619); assay: Inhibition of PDGFRβ kinase activity (HTRF KinEASE-TK); settings: biochemical, HTRF KinEASE-TK
PDGFRβ, sequence (P09619 33-1106): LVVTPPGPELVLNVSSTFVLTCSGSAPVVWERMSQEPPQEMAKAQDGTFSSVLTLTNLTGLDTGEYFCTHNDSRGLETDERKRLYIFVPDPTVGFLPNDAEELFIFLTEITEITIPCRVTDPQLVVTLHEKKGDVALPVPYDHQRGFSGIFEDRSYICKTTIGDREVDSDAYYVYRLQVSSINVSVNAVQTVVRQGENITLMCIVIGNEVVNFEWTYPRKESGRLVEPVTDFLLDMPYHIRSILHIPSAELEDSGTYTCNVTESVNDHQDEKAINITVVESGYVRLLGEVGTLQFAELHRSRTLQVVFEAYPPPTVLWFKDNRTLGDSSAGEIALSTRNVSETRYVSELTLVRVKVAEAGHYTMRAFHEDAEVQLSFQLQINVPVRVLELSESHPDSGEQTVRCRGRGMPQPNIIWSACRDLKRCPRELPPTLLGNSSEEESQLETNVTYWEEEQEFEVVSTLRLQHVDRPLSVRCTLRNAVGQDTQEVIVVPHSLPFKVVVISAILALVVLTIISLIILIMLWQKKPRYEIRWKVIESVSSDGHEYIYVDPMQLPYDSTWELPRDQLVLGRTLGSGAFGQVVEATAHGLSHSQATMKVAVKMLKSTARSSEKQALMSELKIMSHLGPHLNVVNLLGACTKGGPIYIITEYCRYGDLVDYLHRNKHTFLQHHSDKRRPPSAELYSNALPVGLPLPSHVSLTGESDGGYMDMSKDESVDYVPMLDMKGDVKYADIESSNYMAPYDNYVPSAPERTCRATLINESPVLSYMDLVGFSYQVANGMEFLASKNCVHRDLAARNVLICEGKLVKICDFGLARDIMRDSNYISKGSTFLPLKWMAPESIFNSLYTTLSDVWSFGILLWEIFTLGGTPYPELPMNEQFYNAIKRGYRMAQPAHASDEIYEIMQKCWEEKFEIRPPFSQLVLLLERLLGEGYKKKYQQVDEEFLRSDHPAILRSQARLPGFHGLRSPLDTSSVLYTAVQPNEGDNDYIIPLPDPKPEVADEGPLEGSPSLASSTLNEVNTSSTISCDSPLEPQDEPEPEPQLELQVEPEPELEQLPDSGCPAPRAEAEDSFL
Procedure, shortened: as §1

CSF1R = CSF1R (Homo sapiens (Human), UniProt P07333); assay: Inhibition of CSF1R kinase activity (HTRF KinEASE-TK); settings: biochemical, HTRF KinEASE-TK
CSF1R, sequence (P07333 20-972): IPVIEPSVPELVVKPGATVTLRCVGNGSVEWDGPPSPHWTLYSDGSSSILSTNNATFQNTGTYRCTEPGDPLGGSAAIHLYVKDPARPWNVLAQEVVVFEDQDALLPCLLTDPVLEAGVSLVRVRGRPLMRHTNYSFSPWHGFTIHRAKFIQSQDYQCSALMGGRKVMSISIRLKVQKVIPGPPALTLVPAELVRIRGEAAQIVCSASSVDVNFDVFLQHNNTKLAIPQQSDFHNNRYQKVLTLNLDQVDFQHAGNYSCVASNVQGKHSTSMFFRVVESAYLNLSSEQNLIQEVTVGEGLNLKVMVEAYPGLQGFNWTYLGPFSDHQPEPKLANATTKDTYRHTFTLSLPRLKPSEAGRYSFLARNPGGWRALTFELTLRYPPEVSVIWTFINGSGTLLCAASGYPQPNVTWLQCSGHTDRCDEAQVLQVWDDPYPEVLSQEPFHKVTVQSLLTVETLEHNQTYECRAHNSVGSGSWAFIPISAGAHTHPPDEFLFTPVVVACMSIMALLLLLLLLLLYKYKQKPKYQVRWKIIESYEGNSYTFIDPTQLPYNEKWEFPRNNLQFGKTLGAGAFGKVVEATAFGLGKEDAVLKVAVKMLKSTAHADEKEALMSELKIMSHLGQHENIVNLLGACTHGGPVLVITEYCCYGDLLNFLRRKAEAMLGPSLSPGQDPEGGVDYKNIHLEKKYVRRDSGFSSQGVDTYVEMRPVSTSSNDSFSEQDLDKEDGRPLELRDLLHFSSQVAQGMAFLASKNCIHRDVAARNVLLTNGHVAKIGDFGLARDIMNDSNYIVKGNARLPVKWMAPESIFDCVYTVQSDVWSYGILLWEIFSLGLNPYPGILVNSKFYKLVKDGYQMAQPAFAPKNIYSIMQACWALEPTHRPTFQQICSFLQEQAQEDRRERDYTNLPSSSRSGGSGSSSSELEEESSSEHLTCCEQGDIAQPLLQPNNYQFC
Procedure, shortened: as §1

FLT3 = FLT3 (Homo sapiens (Human), UniProt P36888); assay: Inhibition of FLT3 kinase activity (HTRF KinEASE-TK); assay type: biochemical
FLT3, sequence (P36888 27-993): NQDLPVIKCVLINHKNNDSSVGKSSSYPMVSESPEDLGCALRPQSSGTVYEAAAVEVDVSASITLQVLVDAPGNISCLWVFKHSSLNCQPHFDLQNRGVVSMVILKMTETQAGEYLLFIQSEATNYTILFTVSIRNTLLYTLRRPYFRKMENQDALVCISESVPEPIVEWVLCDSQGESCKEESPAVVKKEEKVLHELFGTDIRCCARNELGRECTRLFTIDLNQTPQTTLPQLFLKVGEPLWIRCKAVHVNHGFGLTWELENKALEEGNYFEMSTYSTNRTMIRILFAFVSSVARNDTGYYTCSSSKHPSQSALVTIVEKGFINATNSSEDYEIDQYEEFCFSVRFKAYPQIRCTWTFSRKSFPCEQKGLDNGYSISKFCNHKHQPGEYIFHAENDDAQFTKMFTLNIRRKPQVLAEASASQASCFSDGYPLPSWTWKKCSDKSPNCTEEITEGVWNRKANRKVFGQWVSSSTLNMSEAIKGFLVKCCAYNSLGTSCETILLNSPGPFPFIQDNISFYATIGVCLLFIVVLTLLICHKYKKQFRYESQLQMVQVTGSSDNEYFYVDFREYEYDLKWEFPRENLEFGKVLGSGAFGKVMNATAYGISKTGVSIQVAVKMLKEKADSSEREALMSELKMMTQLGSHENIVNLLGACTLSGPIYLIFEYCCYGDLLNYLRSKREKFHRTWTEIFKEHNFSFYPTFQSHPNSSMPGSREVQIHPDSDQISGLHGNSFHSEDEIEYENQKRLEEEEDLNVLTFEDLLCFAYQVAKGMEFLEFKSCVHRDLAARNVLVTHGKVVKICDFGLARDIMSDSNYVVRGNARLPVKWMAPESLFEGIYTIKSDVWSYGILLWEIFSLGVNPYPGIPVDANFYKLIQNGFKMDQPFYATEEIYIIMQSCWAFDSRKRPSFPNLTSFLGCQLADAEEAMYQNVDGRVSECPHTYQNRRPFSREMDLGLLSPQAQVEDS
Procedure, shortened: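 FLT3 tyrosine kinase activity was measured with the HTRF KinEASE-TK kit by following phosphorylation of a biotinylated TK peptide. After the 45 min reaction, 10 μL of detection mix was added: 0.2 μM (2×) Streptavidin-XL665 and 2 μM (2×) TK-Antibody-Cryptate in detection buffer. After 60 min, TR-FRET was read on an Envision as the 665 nm/620 nm emission ratio with 320 nm excitation.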

[1] = tested on: Phospho-KIT (Y703) in M07e cells; assay: Phospho-KIT (Y703) cellular assay in M07e cells; assay type: cell-based; settings: M-07e, read-out: M07e Cell IC50
Procedure, shortened: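 Serum-starved M07e cells preincubated 50 min at 37° C with 11-point half-log compound titration, then stimulated 10 min with SCF at 90.9 ng/mL final. Fixed, permeabilized cells stained for phospho-KIT Y703 and read by flow cytometry (live-gated geometric mean); IC50 by 4-parameter fit normalized to DMSO and positive control.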

c-Kit, sequence (P10721 26-976): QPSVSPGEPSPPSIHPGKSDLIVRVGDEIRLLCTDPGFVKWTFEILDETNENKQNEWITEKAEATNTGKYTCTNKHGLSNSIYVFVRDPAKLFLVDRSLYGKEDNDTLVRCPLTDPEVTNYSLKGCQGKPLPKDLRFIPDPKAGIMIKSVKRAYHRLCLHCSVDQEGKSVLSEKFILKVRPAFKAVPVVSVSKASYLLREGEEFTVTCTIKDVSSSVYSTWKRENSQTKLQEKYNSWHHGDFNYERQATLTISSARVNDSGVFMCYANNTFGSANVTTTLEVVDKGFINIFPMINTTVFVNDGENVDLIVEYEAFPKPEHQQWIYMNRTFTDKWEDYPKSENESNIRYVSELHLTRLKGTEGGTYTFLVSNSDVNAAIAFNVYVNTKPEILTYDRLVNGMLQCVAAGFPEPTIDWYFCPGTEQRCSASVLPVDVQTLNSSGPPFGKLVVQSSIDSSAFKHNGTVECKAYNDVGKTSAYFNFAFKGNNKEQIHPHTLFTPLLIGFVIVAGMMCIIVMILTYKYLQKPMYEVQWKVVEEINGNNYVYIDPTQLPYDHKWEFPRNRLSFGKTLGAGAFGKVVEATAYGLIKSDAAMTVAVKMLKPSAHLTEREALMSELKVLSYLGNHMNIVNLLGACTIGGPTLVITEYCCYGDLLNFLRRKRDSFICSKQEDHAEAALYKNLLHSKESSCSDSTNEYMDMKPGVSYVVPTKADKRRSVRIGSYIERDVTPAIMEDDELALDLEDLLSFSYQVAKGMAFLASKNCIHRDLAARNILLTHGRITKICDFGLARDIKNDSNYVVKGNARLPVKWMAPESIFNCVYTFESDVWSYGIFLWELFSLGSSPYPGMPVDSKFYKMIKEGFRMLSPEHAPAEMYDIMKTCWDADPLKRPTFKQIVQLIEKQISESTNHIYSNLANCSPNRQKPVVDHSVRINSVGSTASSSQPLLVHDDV

SMILES | IC50 (c-Kit; biochemical, HTRF KinEASE-TK) | IC50 (PDGFRα) | IC50 (PDGFRβ) | IC50 (CSF1R) | IC50 (FLT3; biochemical, HTRF KinEASE-TK) | IC50 ([1]; Phospho-KIT (Y703), M07e cells) | IC50 (c-Kit) | IC50 (FLT3) | IC50 [1]
Cc1cc(F)c(C(=O)N[C@H]2C[C@@H](F)C2)cc1NC(=O)c1cnc(N)s1 [Example 124, 2-Amino-N-[4-fluoro-5-[(3-fluorocyclobutyl)carbamoyl]-2-methylphenyl]-1,3-thiazole-5-carboxamide] | < 100 nM | > 1000 nM | > 1000 nM | > 1000 nM | > 1000 nM | < 100 nM | – | – | –
Cc1cc(F)c(C(=O)Nc2ccc(OC3CC3)cn2)cc1NC(=O)c1cnc(N)s1 [Example 129, 2-Amino-N-[5-[(5-cyclopropyloxypyridin-2-yl)carbamoyl]-4-fluoro-2-methylphenyl]-1,3-thiazole-5-carboxamide] | < 100 nM | > 1000 nM | 100 to 1000 nM | 100 to 1000 nM | > 1000 nM | < 100 nM | – | – | –
Cc1cc(F)c(C(=O)Nc2ccc(C3CC3)cn2)cc1NC(=O)c1cnc(N)s1 [Example 130, 2-Amino-N-[5-[(5-cyclopropylpyridin-2-yl)carbamoyl]-4-fluoro-2-methylphenyl]-1,3-thiazole-5-carboxamide] | < 100 nM | 100 to 1000 nM | 100 to 1000 nM | 100 to 1000 nM | > 1000 nM | < 100 nM | – | – | –
COc1ccc(NC(=O)c2cc(NC(=O)c3cnc(N)s3)c(C)cc2F)nc1 [Example 131, 2-Amino-N-[4-fluoro-5-[(5-methoxypyridin-2-yl)carbamoyl]-2-methylphenyl]-1,3-thiazole-5-carboxamide] | < 100 nM | > 1000 nM | > 1000 nM | > 1000 nM | > 1000 nM | < 100 nM | – | – | –
Cc1cc(F)c(C(=O)Nc2ccccn2)cc1NC(=O)c1cnc(N)s1 [Example 132, 2-Amino-N-[4-fluoro-2-methyl-5-(pyridin-2-ylcarbamoyl)phenyl]-1,3-thiazole-5-carboxamide] | < 100 nM | > 1000 nM | > 1000 nM | > 1000 nM | > 1000 nM | < 100 nM | – | – | –
Cc1ccc(NC(=O)c2cc(NC(=O)c3cnc(N)s3)c(C)cc2F)nc1 [Example 133, 2-Amino-N-[4-fluoro-2-methyl-5-[(5-methylpyridin-2-yl)carbamoyl]phenyl]-1,3-thiazole-5-carboxamide] | < 100 nM | > 1000 nM | > 1000 nM | > 1000 nM | > 1000 nM | < 100 nM | – | – | –
Cc1cc(F)c(C(=O)Nc2ccc(OC3CCC3)cn2)cc1NC(=O)c1cnc(N)s1 [Example 134, 2-Amino-N-[5-[(5-cyclobutyloxypyridin-2-yl)carbamoyl]-4-fluoro-2-methylphenyl]-1,3-thiazole-5-carboxamide] | < 100 nM | 100 to 1000 nM | < 100 nM | 100 to 1000 nM | > 1000 nM | < 100 nM | – | – | –
Cc1cc(F)c(C(=O)Nc2ccc(C3CC3)nn2)cc1NC(=O)c1cnc(N)s1 [Example 135, 2-Amino-N-[5-[(6-cyclopropylpyridazin-3-yl)carbamoyl]-4-fluoro-2-methylphenyl]-1,3-thiazole-5-carboxamide] | < 100 nM | 100 to 1000 nM | < 100 nM | 100 to 1000 nM | > 1000 nM | < 100 nM | – | – | –
Cc1cc(F)c(C(=O)Nc2ccn(C3CC(F)(F)C3)n2)cc1NC(=O)c1cnc(N)s1 [Example 139, 2-Amino-N-[5-[[1-(3,3-difluorocyclobutyl)pyrazol-3-yl]carbamoyl]-4-fluoro-2-methylphenyl]-1,3-thiazole-5-carboxamide] | < 100 nM | 100 to 1000 nM | 100 to 1000 nM | > 1000 nM | > 1000 nM | < 100 nM | – | – | –
Cc1cc(F)c(C(=O)Nc2ccc(OC(C)C)cn2)cc1NC(=O)c1cnc(N)s1 [Example 140, 2-Amino-N-[4-fluoro-2-methyl-5-[(5-propan-2-yloxypyridin-2-yl)carbamoyl]phenyl]-1,3-thiazole-5-carboxamide] | – | 100 to 1000 nM | 100 to 1000 nM | 100 to 1000 nM | – | – | < 100 nM | > 1000 nM | < 100 nM
Cc1cc(F)c(C(=O)Nc2ccn(CC(C)C)n2)cc1NC(=O)c1cnc(N)s1 [Example 142, 2-Amino-N-[4-fluoro-2-methyl-5-[[1-(2-methylpropyl)pyrazol-3-yl]carbamoyl]phenyl]-1,3-thiazole-5-carboxamide] | < 100 nM | 100 to 1000 nM | 100 to 1000 nM | > 1000 nM | > 1000 nM | < 100 nM | – | – | –
Cc1cc(F)c(C(=O)Nc2ccc(OCC3CC3)cn2)cc1NC(=O)c1cnc(N)s1 [Example 143, 2-Amino-N-[5-[[5-(cyclopropylmethoxy)pyridin-2-yl]carbamoyl]-4-fluoro-2-methylphenyl]-1,3-thiazole-5-carboxamide] | < 100 nM | > 1000 nM | 100 to 1000 nM | > 1000 nM | > 1000 nM | < 100 nM | – | – | –
Cc1cc(F)c(C(=O)Nc2ccc(OC3(C)CC3)cn2)cc1NC(=O)c1cnc(N)s1 [Example 147, 2-Amino-N-[4-fluoro-2-methyl-5-[[5-(1-methylcyclopropyl)oxypyridin-2-yl]carbamoyl]phenyl]-1,3-thiazole-5-carboxamide] | < 100 nM | 100 to 1000 nM | < 100 nM | 100 to 1000 nM | > 1000 nM | < 100 nM | – | – | –
Cc1cc(F)c(C(=O)Nc2ccn(CC(F)F)n2)cc1NC(=O)c1cnc(N)s1 [Example 148, 2-Amino-N-[5-[[1-(2,2-difluoroethyl)pyrazol-3-yl]carbamoyl]-4-fluoro-2-methylphenyl]-1,3-thiazole-5-carboxamide] | < 100 nM | > 1000 nM | 100 to 1000 nM | > 1000 nM | > 1000 nM | < 100 nM | – | – | –
Cc1cc(F)c(C(=O)Nc2ccn([C@@H]3CCOC3)n2)cc1NC(=O)c1cnc(N)s1 [Example 149, 2-Amino-N-[4-fluoro-2-methyl-5-[[1-[(3R)-oxolan-3-yl]pyrazol-3-yl]carbamoyl]phenyl]-1,3-thiazole-5-carboxamide] | < 100 nM | > 1000 nM | 100 to 1000 nM | > 1000 nM | > 1000 nM | < 100 nM | – | – | –
Cc1cc(F)c(C(=O)Nc2ccn(C3CCOCC3)n2)cc1NC(=O)c1cnc(N)s1 [Example 150, 2-Amino-N-[4-fluoro-2-methyl-5-[[1-(oxan-4-yl)pyrazol-3-yl]carbamoyl]phenyl]-1,3-thiazole-5-carboxamide] | < 100 nM | > 1000 nM | > 1000 nM | > 1000 nM | > 1000 nM | < 100 nM | – | – | –
Cc1cc(F)c(C(=O)Nc2ccc(OC3CC3)c(C)n2)cc1NC(=O)c1cnc(N)s1 [Example 152, 2-Amino-N-[5-[(5-cyclopropyloxy-6-methylpyridin-2-yl)carbamoyl]-4-fluoro-2-methylphenyl]-1,3-thiazole-5-carboxamide] | < 100 nM | 100 to 1000 nM | 100 to 1000 nM | > 1000 nM | > 1000 nM | < 100 nM | – | – | –
Cc1cc(F)c(C(=O)Nc2ccn(C3CCC3)n2)cc1NC(=O)c1cnc(N)s1 [Example 155, 2-Amino-N-[5-[(1-cyclobutylpyrazol-3-yl)carbamoyl]-4-fluoro-2-methylphenyl]-1,3-thiazole-5-carboxamide] | < 100 nM | 100 to 1000 nM | 100 to 1000 nM | > 1000 nM | > 1000 nM | < 100 nM | – | – | –
Cc1cc(F)c(C(=O)Nc2cc3n(n2)CCC3)cc1NC(=O)c1cnc(N)s1 [Example 156, 2-Amino-N-[5-(5,6-dihydro-4H-pyrrolo[1,2-b]pyrazol-2-ylcarbamoyl)-4-fluoro-2-methylphenyl]-1,3-thiazole-5-carboxamide] | < 100 nM | > 1000 nM | 100 to 1000 nM | > 1000 nM | > 1000 nM | < 100 nM | – | – | –
Cc1cc(F)c(C(=O)Nc2ccn(C(C)C)n2)cc1NC(=O)c1cnc(N)s1 [Example 158, 2-Amino-N-[4-fluoro-2-methyl-5-[(1-propan-2-ylpyrazol-3-yl)carbamoyl]phenyl]-1,3-thiazole-5-carboxamide] | < 100 nM | 100 to 1000 nM | 100 to 1000 nM | > 1000 nM | > 1000 nM | < 100 nM | – | – | –
Cc1cc(F)c(C(=O)Nc2ccn(C3CC3)n2)cc1NC(=O)c1cnc(N)s1 [Example 159, 2-Amino-N-[5-[(1-cyclopropylpyrazol-3-yl)carbamoyl]-4-fluoro-2-methylphenyl]-1,3-thiazole-5-carboxamide] | < 100 nM | > 1000 nM | > 1000 nM | > 1000 nM | > 1000 nM | < 100 nM | – | – | –
